Data set [1] has as its system Platelet Aggregation. As to the kind of experiment: Platelet Aggregation Assay (in vitro, ADP-induced, platelet-rich plasma). Type of data set: cell-based, mongrel dogs or human. As for the experimental part:
Platelet Aggregation Assay
Venous blood was obtained from anesthetized mongrel dogs or from healthy human donors who were drug-free and aspirin-free for at least two weeks prior to blood collection. Blood was collected into citrated Vacutainer tubes. The blood was centrifuged for 15 minutes at 150× g (850 RPM in a Sorvall RT6000 Tabletop Centrifuge with H-1000 B rotor) at room temperature, and platelet-rich plasma (PRP) was removed. The remaining blood was centrifuged for 15 minutes at 1500× g ([…]) at room temperature, and platelet-poor plasma (PPP) was removed. Samples were assayed on an aggregometer (PAP-4 Platelet Aggregation Profiler), using PPP as the blank (100% transmittance). 200 μL of PRP (5×10^8 platelets/mL) were added to each micro test tube, and transmittance was set to 0%. 20 μl of ADP (10 μM) was added to each tube, and the aggregation profiles were plotted (% transmittance versus time). Test agent (20 μL) was added at different concentrations prior to the addition of the platelet agonist. Results are expressed as % inhibition of agonist-induced platelet aggregation.

The target of another data set is T1, GPIIb/IIIa receptor (Homo sapiens, UniProt P05106+P08514).
T1 construct: The GPIIb/IIIa receptor was purified from human platelets; from tissue; host or cells: human platelets (purified according to D'Souza et al., J. Biol. Chem. 1990, 265:3440-3446)
T1 sequence (P08514 32-887 limits assumed): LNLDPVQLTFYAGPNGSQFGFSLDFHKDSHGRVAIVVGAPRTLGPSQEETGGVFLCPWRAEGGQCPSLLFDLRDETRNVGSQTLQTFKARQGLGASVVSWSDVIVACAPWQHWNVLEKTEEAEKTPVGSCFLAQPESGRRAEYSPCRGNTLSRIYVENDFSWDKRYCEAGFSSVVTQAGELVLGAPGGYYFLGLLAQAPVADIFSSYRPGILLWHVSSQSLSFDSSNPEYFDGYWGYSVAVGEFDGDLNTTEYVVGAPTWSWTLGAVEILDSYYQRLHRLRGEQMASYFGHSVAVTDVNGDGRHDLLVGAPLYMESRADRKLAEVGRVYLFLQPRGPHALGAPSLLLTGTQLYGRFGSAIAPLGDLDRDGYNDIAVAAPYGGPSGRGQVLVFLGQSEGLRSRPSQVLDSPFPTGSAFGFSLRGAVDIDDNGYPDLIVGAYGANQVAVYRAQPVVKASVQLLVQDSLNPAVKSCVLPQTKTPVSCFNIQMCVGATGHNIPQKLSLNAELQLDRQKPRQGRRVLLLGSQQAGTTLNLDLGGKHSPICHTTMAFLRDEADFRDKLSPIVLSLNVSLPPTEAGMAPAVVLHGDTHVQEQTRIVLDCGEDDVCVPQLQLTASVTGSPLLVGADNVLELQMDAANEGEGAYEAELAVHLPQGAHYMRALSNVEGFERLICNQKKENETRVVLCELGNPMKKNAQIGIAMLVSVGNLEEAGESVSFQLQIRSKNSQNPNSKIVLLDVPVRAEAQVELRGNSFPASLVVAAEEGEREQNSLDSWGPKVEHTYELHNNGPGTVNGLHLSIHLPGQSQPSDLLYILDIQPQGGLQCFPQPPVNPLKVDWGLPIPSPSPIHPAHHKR
T1 sequence (P08514 891-1039 partner limits assumed): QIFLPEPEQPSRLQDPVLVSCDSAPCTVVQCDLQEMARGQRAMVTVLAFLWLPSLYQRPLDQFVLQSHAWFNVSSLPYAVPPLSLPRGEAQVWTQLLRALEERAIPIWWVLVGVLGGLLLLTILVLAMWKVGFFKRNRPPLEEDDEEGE
T1 sequence (P05106 27-788): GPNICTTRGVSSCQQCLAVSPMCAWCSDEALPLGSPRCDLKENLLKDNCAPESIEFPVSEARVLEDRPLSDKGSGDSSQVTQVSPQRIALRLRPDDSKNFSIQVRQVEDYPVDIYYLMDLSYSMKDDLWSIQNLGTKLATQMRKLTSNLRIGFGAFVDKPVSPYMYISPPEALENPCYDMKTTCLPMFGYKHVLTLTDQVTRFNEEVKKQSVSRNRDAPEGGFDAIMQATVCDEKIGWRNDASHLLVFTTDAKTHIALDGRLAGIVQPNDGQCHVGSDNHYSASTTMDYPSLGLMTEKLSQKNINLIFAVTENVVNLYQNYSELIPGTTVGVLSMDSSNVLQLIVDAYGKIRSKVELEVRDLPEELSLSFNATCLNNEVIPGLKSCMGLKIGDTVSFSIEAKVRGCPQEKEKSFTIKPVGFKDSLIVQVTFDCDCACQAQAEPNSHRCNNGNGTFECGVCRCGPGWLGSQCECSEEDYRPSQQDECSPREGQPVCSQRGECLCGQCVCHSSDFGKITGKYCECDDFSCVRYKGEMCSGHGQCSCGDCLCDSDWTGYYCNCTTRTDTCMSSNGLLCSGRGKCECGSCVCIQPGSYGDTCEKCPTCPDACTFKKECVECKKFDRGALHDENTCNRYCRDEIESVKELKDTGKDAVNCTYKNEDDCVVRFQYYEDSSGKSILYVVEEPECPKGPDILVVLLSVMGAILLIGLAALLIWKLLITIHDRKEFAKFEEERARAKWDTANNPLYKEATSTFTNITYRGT
As to the kind of experiment: GPIIb/IIIa Receptor-Biotinylated Fibrinogen Binding Assay. As to conditions: inhibition of fibrinogen binding to purified GPIIb/IIIa. From the text:
Compounds may be tested for their ability to block binding of vitronectin to the αv /β3 receptor and to block the binding of fibrinogen to GPIIb/IIIa receptor in the αv /β3 -Biotinylated Vitronectin Binding Assay and GPIIb/IIIa Receptor-Biotinylated Fibrinogen Binding Assay described below.
GPIIb/IIIa Receptor-Biotinylated Fibrinogen Binding Assay
The GPIIb/IIIa receptor was purified from human platelets according to D'Souza et al. (J. Biol. Chem., 1990, 265:3440-3446). The purified GPIIb/IIIa protein was coated on 96 well plates and the competition between test compound and biotinylated fibrinogen for binding to the plate-immobilized GPIIb/IIIa receptor was determined by ELISA as described below. Bound fibrinogen was detected using an avidin-alkaline phosphatase conjugate and paranitrophenol detection at […]. For IC50 determination, test agent was added at various concentrations to plates coated with purified GPIIb/IIIa protein which was followed by the addition of biotinylated fibrinogen. The inhibitory binding constant (Ki) of test agents were calculated under this assay system using standard Michaelis-Menten analysis. The IC50 is the concentration of test substance needed to block 50% of the fibrinogen binding to the GPIIb/IIIa receptor.
The following reagents may be used in the GPIIb/IIIa-fibrinogen binding ELISA:
purified GPIIb/IIIa (148.8 μg/mL);
biotinylated fibrinogen (~1 mg/mL or 3000 nM);
anti-biotin alkaline phosphatase conjugate (Sigma no. A7418);
flat-bottom, high binding, 96-well plates (Costar Cat. no. 3590);
phosphatase substrate (Sigma 104) (40 mg capsules);
bovine serum albumin (BSA) (Sigma no. A3294);
Alkaline Phosphatase buffer--0.1 M glycine-HCl, 1 mM MgCl2.6H2 O, 1 mM ZnCl2, pH 10.4;
Binding buffer--20 mM Tris-HCl, 150 mM NaCl, 1 mM CaCl2.2H2 O, 0.02% NaN3, pH 7.0;
Buffer A--50 mM Tris-HCl, 100 mM NaCl, 2 mM CaCl2.2H2 O, 0.02% NaN3, pH 7.4;
Buffer A+3.5% BSA (Blocking buffer);
Buffer A+0.1% BSA (Dilution buffer);
The following method steps are used in the GPIIb/IIIa-fibrinogen binding ELISA:
Coat plates with GPIIb/IIIa in Binding buffer (125 ng/100 μL/well) overnight at 4° C. (Leave first column uncoated for non-specific binding). Cover and freeze plates at -70° C. until used. Thaw plate 1 hour at room temperature or overnight at 4° C. Discard coating solution and wash once with 200 μL Binding buffer per well. Block plate 2 hours at room temperature on shaker with 200 μl Buffer A+3.5% BSA (Blocking buffer) per well. Discard Blocking buffer and wash once with 200 μL Buffer A+0.1% BSA (Dilution buffer) per well. Pipet 11 μL of test compound (10× the concentration to be tested in Dilution buffer) into duplicate wells. […] Read plate at 405 nm. Blank against non-specific binding (NSB) well. % Inhibition is calculated as 100-(Test Compound Abs/Total Abs)×100.

Data set [2] concerns Platelet Aggregation. As to the kind of experiment: In Vivo Platelet Aggregation Inhibition in Dog. Conditions: IV.
The conditions of data set [3]: dog, in vivo, iv.
Description: A Simplate device (Organo Teknika) was applied to the surface of the tongue to make a uniform incision and blood was blotted with filter paper at 30 seconds intervals until bleeding completely stopped, with a 15 minutes cutoff time. Bleeding time was assessed before and at different intervals post-administration of test agent.

Like-named read-outs stand apart in the source and are kept apart here. Non-standard residues stand in square brackets, D forms with d. Residues, ends and D or L forms follow the SMILES beside them. 3Amb = NCc1cccc(C(=O)O)c1

The term IC50 denotes the concentration needed to halve the response being measured. Read a high IC50 as lower potency. On to `C[C@@H]1NC(=O)c2cccc(c2)CNC(=O)[C@H](CC(=O)O)NC(=O)CNC(=O)[C@H](CCCNC(=N)N)NC1=O` [Compound A, cyclo-(Ala-Arg-Gly-Asp-Mamb)] (cyclo(RGD[3Amb]A)), for which the IC50 in the data set on Platelet Aggregation [1] came out at 18 µM; on GPIIb/IIIa receptor, 0.408 µM. Also, the results for the “Platelet Aggregation Inhibition (%)” value with Platelet Aggregation [2] (1 mg/kg), in the data set with Platelet Aggregation [2] (3 mg/kg) and in the data set on Platelet Aggregation [2] (10 mg/kg) were 0-10%, 10-20% and 30-50%, respectively.
Consider `N=C(N)NCCC[C@@H]1NC(=O)[C@@H]2CCCN2C(=O)c2cccc(c2)CNC(=O)[C@H](CC(=O)O)NC(=O)CNC1=O` [Compound B, cyclo-(Pro-Arg-Gly-Asp-Mamb)] (cyclo(RGD[3Amb]P)), for which the IC50 in the data set with Platelet Aggregation [1] is 44 µM; at GPIIb/IIIa receptor, 1.52 µM. The “Platelet Aggregation Inhibition (%)” value is given as 0-10% in the data set on Platelet Aggregation [2] (1 mg/kg), 0-10% in the data set with Platelet Aggregation [2] (3 mg/kg) and 10-20% in the data set with Platelet Aggregation [2] (10 mg/kg). Also, the “Bleeding Time” value in data set [3] (1 mg/kg), in data set [3] (3 mg/kg) and in data set [3] (10 mg/kg) was 3 to 4 min throughout.
